Data published in patent US20260223850A1, “SUBSTITUTED PYRROLIDONE COMPOUND, PREPARATION METHOD THEREFOR, COMPOSITION AND APPLICATION THEREOF” (QINGDAO KINGAGROOT CHEMICAL COMPOUND CO., LTD., priority 2023, published 2026).

Key:
Assay in all cases: Seedling stage sealing experiment for water-seeding
Type in all cases: in vivo
[1] = system: Echinochloa crusgalli; settings: 120 g a.i./ha, seedling stage sealing, 15 days, fresh weight control rate
[2] = system: Echinochloa phyllopogon; settings: 120 g a.i./ha, seedling stage sealing, 15 days, fresh weight control rate
Procedure, shortened: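 Scores (0 = no effect to 9 = dead) reflect fresh-weight control rate 15 days after spray application in greenhouse at 15, 30, 60 or 120 g a.i./ha, mean of three replicates. Seeds were broadcast and soil-covered in pots held moist in water-filled cultivation boxes.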

[3] = system: Leptochloa chinensis; settings: 120 g a.i./ha, 15 days, fresh weight control rate
Description: (1) Seedling Stage Sealing Experiment for Water-Seeding:
The activity level criteria for plant damage (i.e., growth control rate) are as follows: • Level 9: completely dead; • Level 8: growth control rate greater than or equal to 90% and less than 100%; • Level 7: growth control rate greater than or equal to 80% and less than 90%; • Level 6: growth control rate greater than or equal to 70% and less than 80%; • Level 5: growth control rate greater than or equal to 50% and less than 70%; • Level 4: growth control rate greater than or equal to 30% and less than 50%; • Level 3: growth control rate greater than or equal to 20% and less than 30%; • Level 2: growth control rate greater than or equal to 10% and less than 20%; • Level 1: growth control rate less than 10%; • Level 0: no effect.
The above growth control rates are fresh weight control rates.
Echinochloa phyllopogon, Digitaria sanguinalis, Huaidao (rice cultivar), etc. were broadcasted on the surface of nutrition bowls filled with soil and fully covered by soil. The foregoing well-prepared nutrition bowls were then placed in a cultivation box with water filled to a suitable height to keep the soil in the nutrition bowls moist. A test compound of the present invention was individually dissolved with acetone, then diluted into solution of a certain concentration using a certain amount of water, and sprayed using a spray tower. The plants were placed on a greenhouse seedbed and cultured for 15 days, and the experimental results were then collected. The compound was applied at 120, 60, 30 and 15 g a.i./ha in triplicate, and the results were averaged.

SMILES | Echinochloa crusgalli activity level (growth control rate) [1] | Echinochloa phyllopogon activity level (growth control rate) [2] | Leptochloa chinensis activity level (growth control rate) [3]
COc1cc([C@H]2CN(C)C(=O)[C@@H]2C(=O)Nc2cnn(C)c2Cl)ccc1C [321′] | 9 | 6 (Level 6: growth control rate greater than or equal to 70% and less than 80%) | 7 (Level 7: growth control rate greater than or equal to 80% and less than 90%)
CN1C[C@H](c2ccc3ccccc3c2)[C@@H](C(=O)Nc2cnn(C)c2Cl)C1=O [353′] | 9 | 7 (Level 7: growth control rate greater than or equal to 80% and less than 90%) | 9
CN1CC(c2cccc(Cl)c2)C(C(=O)Nc2cnn(C)c2Cl)C1=O (stereo not drawn) [Compound 16] | 6 (Level 6: growth control rate greater than or equal to 70% and less than 80%) | 5 (Level 5: growth control rate greater than or equal to 50% and less than 70%) | 9
C=CCc1cccc(C2CN(C)C(=O)C2C(=O)Nc2cnn(C)c2Cl)c1 (stereo not drawn) [Compound 24] | 9 | 8 (Level 8: growth control rate greater than or equal to 90% and less than 100%) | 9
CN1CC(c2cccc(OC(F)(F)F)c2)C(C(=O)Nc2cnn(C)c2Cl)C1=O (stereo not drawn) [Compound 33] | 9 | 5 (Level 5: growth control rate greater than or equal to 50% and less than 70%) | 9
CN1CC(c2cc(F)cc(C(F)(F)F)c2)C(C(=O)Nc2cnn(C)c2Cl)C1=O (stereo not drawn) [Compound 67] | 9 | 6 (Level 6: growth control rate greater than or equal to 70% and less than 80%) | 9
CN1CC(c2cc(C(F)(F)F)ccc2F)C(C(=O)Nc2cnn(C)c2Cl)C1=O (stereo not drawn) [Compound 80] | 6 (Level 6: growth control rate greater than or equal to 70% and less than 80%) | 6 (Level 6: growth control rate greater than or equal to 70% and less than 80%) | 6 (Level 6: growth control rate greater than or equal to 70% and less than 80%)
CCn1ncc(NC(=O)C2C(=O)N(C)CC2c2cccc(C(F)(F)F)c2)c1Cl (stereo not drawn) [Compound 95] | 6 (Level 6: growth control rate greater than or equal to 70% and less than 80%) | 6 (Level 6: growth control rate greater than or equal to 70% and less than 80%) | 9
CC(C)n1ncc(NC(=O)C2C(=O)N(C)CC2c2cccc(C(F)(F)F)c2)c1Cl (stereo not drawn) [Compound 97] | 9 | 7 (Level 7: growth control rate greater than or equal to 80% and less than 90%) | 9
CN1CC(c2cc(F)cc(F)c2)C(C(=O)Nc2cnn(C)c2Cl)C1=O (stereo not drawn) [Compound 115] | 9 | 6 (Level 6: growth control rate greater than or equal to 70% and less than 80%) | 6 (Level 6: growth control rate greater than or equal to 70% and less than 80%)
CN1CC(c2cccc(Br)c2)C(C(=O)Nc2cnn(C)c2Cl)C1=O (stereo not drawn) [Compound 126] | 7 (Level 7: growth control rate greater than or equal to 80% and less than 90%) | 7 (Level 7: growth control rate greater than or equal to 80% and less than 90%) | 9
CN1CC(c2cccc(C(F)(F)F)c2)C(C(=O)Nc2cnn(C3CC3)c2Cl)C1=O (stereo not drawn) [Compound 164] | 7 (Level 7: growth control rate greater than or equal to 80% and less than 90%) | 6 (Level 6: growth control rate greater than or equal to 70% and less than 80%) | 9
Cc1cc(C)cc(C2CN(C)C(=O)C2C(=O)Nc2c(O)nn(C)c2F)c1 (stereo not drawn) [Compound 286] | 9 | 7 (Level 7: growth control rate greater than or equal to 80% and less than 90%) | 9
CN1CC(c2ccc(F)cc2F)C(C(=O)Nc2cnn(C)c2Cl)C1=O (stereo not drawn) [Compound 304] | 7 (Level 7: growth control rate greater than or equal to 80% and less than 90%) | 6 (Level 6: growth control rate greater than or equal to 70% and less than 80%) | 5 (Level 5: growth control rate greater than or equal to 50% and less than 70%)
COc1cccc(C2CN(C)C(=O)C2C(=O)Nc2cnn(C)c2Cl)c1F (stereo not drawn) [Compound 307] | 6 (Level 6: growth control rate greater than or equal to 70% and less than 80%) | 6 (Level 6: growth control rate greater than or equal to 70% and less than 80%) | 5 (Level 5: growth control rate greater than or equal to 50% and less than 70%)
CN1CC(c2ccc(Cl)c(Cl)c2)C(C(=O)Nc2cnn(C)c2Cl)C1=O (stereo not drawn) [Compound 309] | 6 (Level 6: growth control rate greater than or equal to 70% and less than 80%) | 5 (Level 5: growth control rate greater than or equal to 50% and less than 70%) | 9
CN1CC(c2ccc(F)c(Cl)c2)C(C(=O)Nc2cnn(C)c2Cl)C1=O (stereo not drawn) [Compound 310] | 9 | 8 (Level 8: growth control rate greater than or equal to 90% and less than 100%) | 9
Cc1ccc(C2CN(C)C(=O)C2C(=O)Nc2cnn(C)c2Cl)cc1C (stereo not drawn) [Compound 314] | 7 (Level 7: growth control rate greater than or equal to 80% and less than 90%) | 6 (Level 6: growth control rate greater than or equal to 70% and less than 80%) | 9
COc1cc(C2CN(C)C(=O)C2C(=O)Nc2cnn(C)c2Cl)ccc1F (stereo not drawn) [Compound 320] | 6 (Level 6: growth control rate greater than or equal to 70% and less than 80%) | 6 (Level 6: growth control rate greater than or equal to 70% and less than 80%) | 5 (Level 5: growth control rate greater than or equal to 50% and less than 70%)
COc1cc(C2CN(C)C(=O)C2C(=O)Nc2cnn(C)c2Cl)ccc1C (stereo not drawn) [Compound 321] | 5 (Level 5: growth control rate greater than or equal to 50% and less than 70%) | 5 (Level 5: growth control rate greater than or equal to 50% and less than 70%) | 6 (Level 6: growth control rate greater than or equal to 70% and less than 80%)
